Results as given in EPA's ToxValDB 9.5 (doi:10.2903/j.efsa.2006.72r).
Converted amounts (≈) assume the structure as drawn.

Key:
Landoltia sp. = conditions: acute; duration: 14 days; mortality
Oncorhynchus mykiss = conditions: acute; duration: 96 hours; mortality
Rattus norvegicus = conditions: for LD50: acute, mortality; for NOAEL: histopathology: neoplastic
Canidae = conditions: short-term; duration: 2 weeks; Dog Other
Daphnia magna = conditions: chronic/long-term; duration: 21 days; mortality
Pimephales promelas = conditions: chronic/long-term; duration: 33 days; growth
Folsomia candida = conditions: not reported; mortality
Oryctolagus sp. = conditions: reproduction developmental; inhalation
Cyprinodon variegatus = conditions: acute; duration: 96 hours; mortality
Anas platyrhynchos = conditions: short-term; oral; feed; mortality
Colinus virginianus = conditions: acute; oral; diet; mortality
Mus musculus = conditions: chronic, duration: 2 years

Row | Structure (SMILES) | LC50 (Landoltia sp.) [µg/mL] | LC50 (Oncorhynchus mykiss) [µg/mL] | LD50 (Rattus norvegicus; oral) [mg/kg] | NOAEL (Canidae) [mg/kg-day] | NOEC (Daphnia magna) [mg/L] | LC50 (Tagia sp.; acute, duration: 14 days, mortality) [mg/kg] | NOEC (Tagia sp.; chronic/long-term, duration: 56 days, reproduction) [mg/kg] | NOEC (Pimephales promelas) [mg/L] | LD50 (Rattus norvegicus; inhalation) [mg/L] | NOAEL (Rattus norvegicus; chronic, duration: 2 years, oral, diet) [mg/kg-day] | NOAEL (Rattus norvegicus; subchronic, duration: 90 days, inhalation) [mg/kg-day] | LEL (Folsomia candida) [g/ha] | NOAEL (Oryctolagus sp.) [mg/L] | LC50 (Cyprinodon variegatus) [µg/mL] | LC50 (Anas platyrhynchos) [mg/kg-day] | LD50 (Colinus virginianus) [mg/kg] | NOAEL (Mus musculus; inhalation, histopathology: neoplastic) [mg/kg-day] | NOAEL (Mus musculus; oral, M/F) [mg/kg-day]
1 | O=C(O)C=CCl [3-Chloroacrylic acid] | 0.26 (≈ 2.44 µM) | 69.5 (≈ 653 µM) | 91 | – | – | – | – | – | – | – | – | – | – | – | – | – | – | –
2 | ClC=CCCl [1,3-Dichloropropene] | – | – | 130 | 20 | 0.0701 | 55.6 | 770 | 0.032 | 2.7 | 2.5 | 9.72 | 329000 | 0.0908 | 0.87 (≈ 7.84 µM) | > 1260 | 140 | 4.43 | 2.5
